Here are results for 21 compounds from ChEMBL document CHEMBL4000254, “Sodium Channel Blockers” (ACS Med Chem Lett, 2017).

The structures appear in SMILES notation.

The target of this test is Sodium channel protein type 9 subunit alpha (Homo sapiens, UniProt Q15858). As to the kind of experiment: Inhibition of human Nav1.7 expressed in HEK293 cells assessed as inhibition of peak current after 50 secs by automated patch clamp assay. It counts as cell-based. On the technique in general: The patch-clamp technique gives a direct electrical read-out from membranes.
Sequence of Sodium channel protein type 9 subunit alpha (Q15858 whole entry): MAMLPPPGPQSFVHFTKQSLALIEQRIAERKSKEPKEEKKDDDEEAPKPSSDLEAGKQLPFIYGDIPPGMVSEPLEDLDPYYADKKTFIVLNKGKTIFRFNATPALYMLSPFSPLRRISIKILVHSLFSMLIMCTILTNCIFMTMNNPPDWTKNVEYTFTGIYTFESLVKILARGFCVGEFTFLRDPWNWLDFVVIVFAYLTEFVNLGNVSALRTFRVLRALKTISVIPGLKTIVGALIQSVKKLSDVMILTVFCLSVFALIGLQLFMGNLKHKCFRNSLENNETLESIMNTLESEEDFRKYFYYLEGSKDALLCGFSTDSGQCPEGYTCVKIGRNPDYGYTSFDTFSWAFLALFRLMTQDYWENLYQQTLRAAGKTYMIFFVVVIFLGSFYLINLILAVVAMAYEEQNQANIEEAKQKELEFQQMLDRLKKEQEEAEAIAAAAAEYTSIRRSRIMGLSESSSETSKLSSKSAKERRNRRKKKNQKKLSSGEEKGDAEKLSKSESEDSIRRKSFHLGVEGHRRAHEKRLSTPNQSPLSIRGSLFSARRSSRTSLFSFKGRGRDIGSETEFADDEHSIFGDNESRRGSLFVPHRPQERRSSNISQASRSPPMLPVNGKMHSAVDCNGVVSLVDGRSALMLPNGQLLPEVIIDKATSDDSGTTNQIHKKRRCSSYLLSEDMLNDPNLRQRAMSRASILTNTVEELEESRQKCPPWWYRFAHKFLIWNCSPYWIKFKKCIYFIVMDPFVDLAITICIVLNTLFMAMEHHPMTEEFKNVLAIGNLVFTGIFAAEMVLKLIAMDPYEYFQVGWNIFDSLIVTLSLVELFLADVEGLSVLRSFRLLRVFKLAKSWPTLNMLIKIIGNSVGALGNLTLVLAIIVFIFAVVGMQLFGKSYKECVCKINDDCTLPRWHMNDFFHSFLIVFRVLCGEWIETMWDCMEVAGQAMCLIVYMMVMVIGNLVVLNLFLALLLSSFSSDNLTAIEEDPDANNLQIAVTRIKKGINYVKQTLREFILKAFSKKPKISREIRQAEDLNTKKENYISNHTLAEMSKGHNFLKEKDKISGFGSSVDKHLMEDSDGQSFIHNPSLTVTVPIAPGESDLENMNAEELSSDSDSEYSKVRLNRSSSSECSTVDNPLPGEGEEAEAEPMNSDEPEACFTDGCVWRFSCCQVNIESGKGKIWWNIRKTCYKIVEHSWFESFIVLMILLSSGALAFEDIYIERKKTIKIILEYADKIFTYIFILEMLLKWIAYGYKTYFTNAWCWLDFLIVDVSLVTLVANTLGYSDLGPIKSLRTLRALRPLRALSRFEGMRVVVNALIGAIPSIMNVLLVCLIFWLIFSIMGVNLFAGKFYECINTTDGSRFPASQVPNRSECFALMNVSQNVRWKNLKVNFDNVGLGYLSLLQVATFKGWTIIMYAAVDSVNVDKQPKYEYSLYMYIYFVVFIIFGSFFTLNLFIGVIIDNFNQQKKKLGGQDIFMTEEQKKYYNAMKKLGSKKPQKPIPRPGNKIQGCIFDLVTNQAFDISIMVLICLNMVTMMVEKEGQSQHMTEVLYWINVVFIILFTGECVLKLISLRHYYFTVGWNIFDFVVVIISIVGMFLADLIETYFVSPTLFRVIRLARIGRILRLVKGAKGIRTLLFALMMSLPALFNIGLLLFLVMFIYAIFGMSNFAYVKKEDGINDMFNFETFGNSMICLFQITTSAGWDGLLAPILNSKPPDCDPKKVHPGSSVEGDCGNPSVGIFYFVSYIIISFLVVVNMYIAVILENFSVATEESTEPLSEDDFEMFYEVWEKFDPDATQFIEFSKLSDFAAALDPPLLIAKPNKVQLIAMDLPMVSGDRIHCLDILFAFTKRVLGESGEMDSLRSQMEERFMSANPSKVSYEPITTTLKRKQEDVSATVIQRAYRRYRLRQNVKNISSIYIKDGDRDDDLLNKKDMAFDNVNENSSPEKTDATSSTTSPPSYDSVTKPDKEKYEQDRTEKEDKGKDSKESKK
The IC50 is the concentration that gives 50% inhibition. `CS(=O)(=O)NC(=O)c1cc(Cl)c(-n2nc(Cl)c3cc(-c4cccc(Cl)c4F)ccc32)cc1F`: the concentration for half-maximal inhibition (IC50) turned out to be 70 nM.
For the compound `CS(=O)(=O)NC(=O)c1cc(Cl)c(-n2cc(F)c3cc(-c4cccc(Cl)c4)cnc32)cc1F`, the IC50 was determined as 50 nM.
Then `CS(=O)(=O)NC(=O)c1cc(Cl)c(-n2nc(F)c3cc(-c4cccc(Cl)c4)ccc32)cc1F`, with 40 nM.
For the compound `CS(=O)(=O)NC(=O)c1cc(Cl)c(-n2cc(F)c3cc(-c4ccc(C(F)(F)F)cc4)cnc32)cc1F`, the concentration for half-maximal inhibition (IC50) was found to be 50 nM.
In the case of `CS(=O)(=O)NC(=O)c1cc(Cl)c(-n2nc(Cl)c3cc(-c4cc(F)ccc4F)ccc32)cc1F` it was 90 nM; in that of `CS(=O)(=O)NC(=O)c1cc(Cl)c(-n2ncc3cc(-c4ccc(Cl)cc4F)ccc32)cc1F`, 70 nM.
In the case of `Cc1ccccc1-c1ccc2c(c1)c(F)nn2-c1cc(F)c(C(=O)NS(C)(=O)=O)cc1Cl` it was 60 nM; in that of `COc1cccc(-c2ccc3c(c2)c(F)nn3-c2cc(F)c(C(=O)NS(C)(=O)=O)cc2Cl)c1`, 80 nM.
With `CS(=O)(=O)NC(=O)c1cc(Cl)c(-n2cc(Cl)c3cc(-c4ccc(F)cc4F)cnc32)cc1F`, the IC50 was 80 nM.
Then `Cc1cccc(-c2ccc3c(c2)c(Cl)nn3-c2cc(F)c(C(=O)NS(C)(=O)=O)cc2Cl)c1`, with 39 nM; and `CS(=O)(=O)NC(=O)c1cc(Cl)c(-n2cc(Cl)c3cc(-c4ccc(C(F)(F)F)cc4)cnc32)cc1F`, with 50 nM.
With `CS(=O)(=O)NC(=O)c1cc(Cl)c(-n2nc(Cl)c3cc(OCc4ccc5ccccc5c4)ccc32)cc1F`, the half-maximal inhibitory concentration (IC50) was 7.6 nM.
In the case of `CS(=O)(=O)NC(=O)c1cc(Cl)c(-n2nc(Cl)c3cc(-c4ccc(Cl)c(F)c4)ccc32)cc1F` it was 80 nM.
With `CS(=O)(=O)NC(=O)c1cc(Cl)c(-n2cc(F)c3cc(-c4cccc(Cl)c4F)cnc32)cc1F`, the IC50 was determined as 40 nM.
In the case of `Cc1cc(F)ccc1-c1cnc2c(c1)c(Cl)cn2-c1cc(F)c(C(=O)NS(C)(=O)=O)cc1Cl` it was 90 nM.
Then `CS(=O)(=O)NC(=O)c1cc(Cl)c(-n2nc(Cl)c3cc(-c4cc(F)c(F)c(F)c4)ccc32)cc1F`, with 20 nM; and `CS(=O)(=O)NC(=O)c1cc(Cl)c(-n2ncc3cc(-c4cccc(Cl)c4)ccc32)cc1F`, with 70 nM.
In the case of `CS(=O)(=O)NC(=O)c1cc(Cl)c(-n2nc(F)c3cc(-c4cccc(F)c4)ccc32)cc1F` it was 90 nM.
Take `CS(=O)(=O)NC(=O)c1cc(Cl)c(-n2cc(Cl)c3cc(-c4ccc(F)cc4Cl)cnc32)cc1F`: the 50% inhibitory concentration (IC50) was determined as 40 nM.
In the case of `Cc1cccc(-c2ccc3c(c2)c(F)nn3-c2cc(F)c(C(=O)NS(C)(=O)=O)cc2Cl)c1` it was 80 nM; in that of `CS(=O)(=O)NC(=O)c1cc(Cl)c(-n2nc(Cl)c3cc(-c4ccc(OC(F)(F)F)cc4)ccc32)cc1F`, 80 nM.
